Data: article PMC8949187, “Study of Structure–Activity Relationships of the Marine Alkaloid Fascaplysin and Its Derivatives as Potent Anticancer Agents” (Marine Drugs, 2022)

How the values were obtained:
[1] = test system: PC-3 cells; test: MTT assay, PC-3 cells; format: cell-based, human; settings: prostate cancer cells, 48 h of treatment, mean ± SD
Procedure: (§1) The human prostate cancer cell lines PC-3, DU145, 22Rv1 and LNCaP, as well as human prostate non-cancer cell line PNT2 were purchased from ATCC (Manassas, VA, USA). HEK 293T (human embryonic kidney cells) and MRC-9 (human fibroblast cells) cell lines were purchased from ECACC (Salisbury, UK). […] Authentication of all cell lines used was recently performed by a commercial service (Multiplexion GmbH, Heidelberg, Germany).
(§2) Cells were cultured as monolayers at 37 °C in a humidified atmosphere with 5% (v/v) CO2 in the correspondent culture medium: 10% FBS/RPMI medium (RPMI medium supplemented with Glutamax^TM-I (gibco® Life technologies^TM, Paisley, UK) containing 10% fetal bovine serum (FBS, gibco® Life technologies^TM) and 1% penicillin/streptomycin (Invitrogen)) for PNT2, LNCaP, 22Rv1, PC-3 and DU145 and cells; 10% FBS/DMEM medium (DMEM medium supplemented with Glutamax^TM-I (gibco® Life technologies^TM) containing 10% FBS and 1% penicillin/streptomycin (gibco® Life technologies^TM)) for MRC-9 and HEK 293 cells. Cells were continuously kept in culture for a maximum of 3 months, and were regularly checked for stable phenotype and mycoplasma infection.
(§3) Effect of the drugs on cell viability in terms of metabolic activity was assessed by MTT assay, as previously reported. Cells were pre-incubated overnight in 96-well plates (6 × 10^3 cells/well in 100 μL/well) in the correspondent culture media. Then, the medium was replaced with fresh 10% FBS/RPMI medium containing the investigated compounds (100 μL/well), and cells were incubated for 48 h, unless otherwise stated. Next, 10 μL/well of (3-(4,5-dimethylthiazol-2-yl)-2,5-diphenyltetrazolium bromide) reagent (MTT, 5 mg/mL) was added. After 2–4 h of incubation, the media was aspirated and the plates were dried. Then, 50 μL/well of DMSO was added to each well and the cell viability was measured using an Infinite F200PRO reader (TECAN, Männedorf, Switzerland). Results were calculated using the GraphPad Prism software v.9.1.1 (GraphPad Software, San Diego, CA, USA) and are represented as IC50 of the compounds calculated using the cells treated with the solvent alone as a control.

[2] = test system: 22Rv1 cells; test: MTT assay, 22Rv1 cells; format: cell-based, human; settings: prostate cancer cells, 48 h of treatment, mean ± SD
Procedure: as §1, §2, §3

[3] = test system: DU145 cells; test: MTT assay, DU145 cells; format: cell-based, human; settings: prostate cancer cells, 48 h of treatment, mean ± SD
Procedure: as §1, §2, §3

[4] = test system: LNCaP cells; test: MTT assay, LNCaP cells; format: cell-based, human; settings: prostate cancer cells, 48 h of treatment, mean ± SD
Procedure: as §1, §2, §3

[5] = test system: PNT2 cells; test: MTT assay, PNT2 cells; format: cell-based, human; settings: non-cancer cells, 48 h of treatment, mean ± SD
Procedure: as §1, §2, §3

[6] = test system: MRC-9 cells; test: MTT assay, MRC-9 cells; format: cell-based, human; settings: non-cancer cells, 48 h of treatment, mean ± SD
Procedure: as §1, §2, §3

[7] = test system: HEK-293 cells; test: MTT assay, HEK-293 cells; format: cell-based, human; settings: non-cancer cells, 48 h of treatment, mean ± SD
Procedure: as §1, §2, §3

[8] = test system: 22Rv1 cells; test: Trypan blue-based viability assay; format: cell-based, human; settings: 48 h of treatment, mean ± SD, read-out: IC50, trypan blue staining assay
Procedure: The effect of the drugs on cell viability in terms of cellular membrane integrity was evaluated by the trypan blue exclusion assay as described before. In brief, cells (0.2 × 10^6 cells/well) were seeded in 6-well plates and incubated overnight, and the media was replaced with fresh media (1 mL/well) containing drugs at indicated concentrations. After treatment for 48 h, the cells were harvested by trypsinization, stained with trypan blue and the viability was measured using an automatic Beckman Coulter Vi-CELL (Beckman Coulter, Krefeld, Germany). Trypan blue-positive cells were assumed to have damaged cellular membrane (i.e., dead), whereas trypan blue-negative cells were considered to have an intact cellular membrane (i.e., alive).

[9] = test system: 22Rv1 cells; test: DNA fragmentation (apoptosis, sub-G1), flow cytometry with PI staining; format: cell-based, human; settings: treated at IC50 (MTT assay) for 48 h, mean ± SD
Procedure: The effects on cell cycle progression and DNA fragmentation were analyzed by flow cytometry using PI staining, as described before. Cells (2 × 10^5 cells/well) were pre-incubated overnight in 6-well plates and then treated with the investigated drugs in fresh culture media (2 mL/well) for 48 h. Cells were harvested by trypsinization, fixed in 70% EtOH, stained with PI solution and analyzed by FACS Calibur (BD Bioscience, San Jose, CA, USA). The results were quantified using BD Bioscience Cell Quest Pro v.5.2.1. software (BD Bioscience). The cells appearing as a sub-G1 population (containing fragmented DNA) were considered to be apoptotic.

[10] = test system: prostate cancer cell lines (PC-3, 22Rv1, DU145 and LNCaP); test: MTT assay, mean over four prostate cancer cell lines; format: cell-based; settings: Homo sapiens; mean of MTT IC50 in PC-3, 22Rv1, DU145 and LNCaP; from Table S1 values; read-out: mean IC50 in cancer cells
Procedure: as §3, with “Next, SAR analysis was performed to identify the structural elements that are beneficial for anticancer activity of the fascaplysin-related molecules. Considering the complex and heterogeneous nature of tumors even within the same patient, we used calculated mean IC50 values of each drug in all prostate cancer cells for further analysis (Figure 2A). To identify the drug candidates with the highest therapeutic potential, the selectivity index (SI) was calculated as mean IC50 in non-cancer cells versus mean IC50 in cancer cells (Figure 2B), or as a mean IC50 in non-cancer (MRC-9 and HEK293) cells versus mean IC50 in prostate cells (cancer PC-3, 22Rv1, DU145, LNCaP and non-cancer PNT2 cells) (Figure 2C). Finally, to estimate the effects on cellular metabolism, we compared the activity evaluated by using trypan blue assay versus MTT assay (Figure 2D). Effect” for “Effect”, “2-4” for “2–4”, “F200PRO” left out

[11] = test system: non-cancer cell lines versus cancer cell lines; test: Selectivity index from MTT IC50s; format: cell-based, human; settings: MTT; for Selectivity index, IC50 (non-prostate) / IC50 (prostate): mean IC50 MRC-9 and HEK-293 versus mean IC50 prostate cancer cell lines plus PNT2; for Selectivity index, IC50 (non-cancer) / IC50 (cancer): mean IC50 non-cancer cell lines versus mean IC50 cancer cell lines
Procedure: as §3, with “Next, SAR analysis was performed to identify the structural elements that are beneficial for anticancer activity of the fascaplysin-related molecules. Considering the complex and heterogeneous nature of tumors even within the same patient, we used calculated mean IC50 values of each drug in all prostate cancer cells for further analysis (Figure 2A). To identify the drug candidates with the highest therapeutic potential, the selectivity index (SI) was calculated as mean IC50 in non-cancer cells versus mean IC50 in cancer cells (Figure 2B), or as a mean IC50 in non-cancer (MRC-9 and HEK293) cells versus mean IC50 in prostate cells (cancer PC-3, 22Rv1, DU145, LNCaP and non-cancer PNT2 cells) (Figure 2C). Finally, to estimate the effects on cellular metabolism, we compared the activity evaluated by using trypan blue assay versus MTT assay (Figure 2D). Effect” for “Effect”, “2-4” for “2–4”, “F200PRO” left out

[12] = test system: double-stranded calf thymus DNA; test: Thiazole orange displacement (DNA intercalation) assay; format: binding; settings: 1 µM calf thymus DNA base pairs, 2 µM thiazole orange; 7 min at room temperature; mean ± SD
Procedure: DNA intercalation activity of the compounds was calculated as an ability to displace thiazole orange (TO) from the double-stranded DNA. For this experiment, a mixture (100 µL) containing 1 µM of double-stranded calf thymus DNA (recalculated as a concentration of base pairs) and 2 µM of thiazole orange (TO) solved in water was prepared. Then, the investigated compounds were added up to final concentrations of 0.39–25 µM; DMSO concentration in the samples was <0.02%. Propidium iodide (PI, positive control) was added up to final concentrations of 0.039–2.5 uM. After 7 min of incubation at room temperature, TO fluorescence was monitored using a multimodal plate reader TECAN Spark (Tecan Group Ltd., Männedorf Switzerland) at the excitation λ = 480 nm; fluorescence was recorded at λ = 530 nm. The bandwidth was 10 nm. The concentration of the drug that caused a decrease in TO fluorescence by 50% (EC50) was determined by approximating the experimental data using a non-linear regression algorithm and calculated using the GraphPad Prism software v.9.1.1 (GraphPad Software, San Diego, CA, USA).

SMILES | IC50 ([1]; Homo sapiens, PC-3) | IC50 ([2]; Homo sapiens, 22Rv1) | IC50 ([3]; Homo sapiens, DU-145) | IC50 ([4]; Homo sapiens, LNCaP) | IC50 ([5]; Homo sapiens, PNT2) | IC50 ([6]; Homo sapiens, MRC9) | IC50 ([7]; Homo sapiens, HEK293) | IC50 ([8]; Homo sapiens) | % of sub-G1 apoptotic cells (at IC50) [9] | IC50 [10] | Selectivity index, IC50 (non-prostate) / IC50 (prostate) [11] | Selectivity index, IC50 (non-cancer) / IC50 (cancer) [11] | further results
O=C1c2cc(Br)ccc2-[n+]2ccc3c([nH]c4ccc(I)cc43)c21.[Cl-] [Compound 11, 12,13-dihydro-2-bromo-9-iodo-13-oxopyrido[1,2-a:3,4-b’]diindol-5-ium chloride] | 3.14 ± 0.98 µM | 2.33 ± 0.87 µM | 1.35 ± 0.318 µM | 1.17 ± 0.084 µM | 0.86 ± 0.072 µM | 31.9 ± 7.07 µM | 0.48 ± 0.052 µM | 1.33 ± 0.277 µM | 13.1±2.86% | 2 µM | 9.15 | 5.55 | –
Cc1cc2c([nH]c3ccccc32)c2[n+]1-c1ccccc1C2=O.[Cl-] [Compound 19, 12,13-dihydro-6-methyl-13-oxopyrido[1,2-a:3,4-b’]diindol-5-ium chloride] | 2.67 ± 0.14 µM | 1.59 ± 0.514 µM | 2.24 ± 0.89 µM | 2.24 ± 0.81 µM | 3.25 ± 0.795 µM | 2.98 ± 0.93 µM | 1.82 ± 0.387 µM | 2.03 ± 0.609 µM | 14.2±0.567% | 2.18 µM | 1.00 | 1.23 | EC50 [12]: 0.38 ± 0.02 µM
Cc1c[n+]2c(c3[nH]c4ccccc4c13)C(=O)c1ccccc1-2.[Cl-] [Compound 18, 12,13-dihydro-7-methyl-13-oxopyrido[1,2-a:3,4-b’]diindol-5-ium chloride] | 1.07 ± 0.55 µM | 0.79 ± 0.038 µM | 1.79 ± 0.478 µM | 0.803 ± 0.08 µM | 0.956 ± 0.092 µM | 1.18 ± 0.096 µM | 0.59 ± 0.085 µM | 0.472 ± 0.185 µM | 23.1±3.42% | 1.11 µM | 0.82 | 0.82 | –
O=C1c2cc(Br)ccc2-[n+]2ccc3c([nH]c4c(Br)cc(Br)cc43)c21.[Cl-] [Compound 13, 12,13-dihydro-2,9,11-tribromo-13-oxopyrido[1,2-a:3,4-b’]diindol-5-ium chloride] | 5.94 ± 0.86 µM | 3.98 ± 0.3 µM | 13.2 ± 4.44 µM | 7.63 ± 0.74 µM | 4.38 ± 0.674 µM | 30 ± 5.8 µM | 2.25 ± 0.99 µM | 4.48 ± 1.65 µM | 27.6±7.52% | 7.69 µM | 2.29 | 1.59 | –
CC[N+](C)(CC)CCC[n+]1c(-c2ccccc2)c2cc(N)ccc2c2ccc(N)cc21 [PI, propidium iodide, reference compound] | – | – | – | – | – | – | – | – | – | – | – | – | EC50 [12]: 0.004 ± 0.0005 µM
N.N.[Cl][Pt][Cl] [Cis, Cisplatin, reference compound] | – | – | – | – | – | – | – | – | 14.7±3.43% | – | 0.92 | 1.23 | IC50 [1]: 34.6 µM; IC50 [2]: 0.99 ± 0.29 µM; IC50 [3]: 1.32 ± 0.53 µM; IC50 [4]: 2.75 ± 0.55 µM; IC50 [5]: 9.41 ± 3.12 µM; IC50 [6]: 6.75 ± 1.99 µM; IC50 [7]: 6.44 ± 1.77 µM; IC50 [8]: 0.19 ± 0.044 µM
O=C1c2cc(Br)ccc2-[n+]2ccc3c([nH]c4ccc(Br)cc43)c21.[Cl-] [Compound 10, 12,13-dihydro-2,9-dibromo-13-oxopyrido[1,2-a:3,4-b’]diindol-5-ium chloride] | 1.83 ± 0.1 µM | 0.49 ± 0.039 µM | 0.913 ± 0.116 µM | 1.13 ± 0.803 µM | 0.614 ± 0.098 µM | 4.96 ± 0.386 µM | 0.25 ± 0.034 µM | 0.215 ± 0.036 µM | 24.0±5.37% | 1.09 µM | 2.62 | 1.78 | –
O=C1c2ccc(Br)cc2-[n+]2ccc3c([nH]c4ccc(Br)cc43)c21.[Cl-] [Compound 15, 12,13-dihydro-3,9-dibromo-13-oxopyrido[1,2-a:3,4-b’]diindol-5-ium chloride] | 2.95 ± 0.23 µM | 2.24 ± 0.811 µM | 0.616 ± 0.094 µM | 2.6 ± 0.367 µM | 0.643 ± 0.049 µM | 12.6 ± 6.94 µM | 0.275 ± 0.021 µM | 2.85 ± 0.487 µM | 8.63±0.71% | 2.1 µM | 3.56 | 2.15 | –
